Reference: US20160060260A1, “BROMODOMAIN INHIBITORS FOR TREATING DISEASE” (Board of Regents, The University of Texas System, priority 2014, published 2016)

Molecular target: T1, Recombinant human His-tagged Trim24-PHD-bromodomain (Homo sapiens, UniProt O15164)
T1 construct: Recombinant human His-tagged Trim24-PHD-bromodomain (produced in-house); made in house
T1 sequence (O15164 824-1006 limits assumed): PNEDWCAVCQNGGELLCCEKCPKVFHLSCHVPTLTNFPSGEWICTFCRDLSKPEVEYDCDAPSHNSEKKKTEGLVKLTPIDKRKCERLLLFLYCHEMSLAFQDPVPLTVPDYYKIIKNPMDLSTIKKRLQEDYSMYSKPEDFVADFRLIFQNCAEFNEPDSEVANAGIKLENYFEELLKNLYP
Assay: Trim24 AlphaScreen Assay
Assay type: binding
Conditions: 5 nM Trim24 protein, 15 nM biotinylated H3K23ac (1-33aa) peptide
Procedure: Recombinant human His-tagged Trim24-PHD-bromodomain (produced in-house), biotinylated H3K23ac (1-33aa) peptide (AnaSpec, Inc.), and test compound were added to a 384-well OptiPlate (Perkin Elmer) and incubated at room temperature for one hour. The assay buffer consisted of 50 mM Hepes, pH 7.5, 100 mM NaCl, and 0.12 mM Triton X-100.
Streptavidin donor beads and nickel chelate acceptor beads, both from a Perkin Elmer AlphaScreen Histidine Detection Kit, were then added to the Optiplate to a final concentration of 10 ug/mL each. Following a 2 hour incubation at room temperature, the microplate was read on an Envision Plate Reader (Perkin Elmer). Percent of control (POC) values were calculated from the following formula:
POC=[sample signal-average background signal]/[average maximum signal−average background signal]*100
The average maximum signal was obtained from wells containing all assay components except test compound. The average background signal pertained to wells with all assay components except Trim24 and test compound. IC50 values were calculated using a four-parameter logistic curve fit.

SMILES	IC50 [nM]
CCCOc1cc(OCCCCCCN)cc(Oc2cc3c(cc2NS(=O)(=O)c2cccc(C(=O)O)c2)n(C)c(=O)n3C)c1 [Example 220, 3-(N-(6-(3-((6-aminohexyl)oxy)-5-propoxyphenoxy)-1,3-dimethyl-2-oxo-2,3-dihydro-1H-benzo[d]imidazol-5-yl)sulfamoyl)benzoic acid]	100 to 1000
Cc1nc(S(=O)(=O)Nc2cc3c(cc2Oc2cccc(OCC(=O)N(C)C)c2)n(C)c(=O)n3C)cn1C [Example 56, 2-(3-((6-((1,2-dimethyl-1H-imidazole)-4-sulfonamido)-1,3-dimethyl-2-oxo-2,3-dihydro-1H-benzo[d]imidazol-5-yl)oxy)phenoxy)-N,N-dimethylacetamide]	> 1000
COCCCOc1cccc(Oc2cc3c(cc2NS(=O)(=O)c2cn(C)cn2)n(C)c(=O)n3C)c1 [Example 68, N-(6-(3-(3-methoxypropoxy)phenoxy)-1,3-dimethyl-2-oxo-2,3-dihydro-1H-benzo[d]imidazol-5-yl)-1-methyl-1H-imidazole-4-sulfonamide]	100 to 1000
Cn1c(=O)n(C)c2cc(Oc3cccc(OCc4ccccc4)c3)c(NS(=O)(=O)c3cccnc3)cc21 [Example 14, N-(6-(3-(benzyloxy)phenoxy)-1,3-dimethyl-2-oxo-2,3-dihydro-1H-benzo[d]imidazol-5-yl)pyridine-3-sulfonamide]	100 to 1000
C=CCOc1cccc(Oc2cc3c(cc2NS(=O)(=O)c2ccccn2)n(C)c(=O)n3C)c1 [Example 144, N-(6-(3-(allyloxy)phenoxy)-1,3-dimethyl-2-oxo-2,3-dihydro-1H-benzo[d]imidazol-5-yl)pyridine-2-sulfonamide]	100 to 1000
COc1ccc(S(=O)(=O)Nc2cc3c(cc2Oc2cccc(OCc4ccc(Cl)nc4)c2)n(C)c(=O)n3C)cc1OC [Example 20, N-(6-(3-((6-chloropyridin-3-yl)methoxy)phenoxy)-1,3-dimethyl-2-oxo-2,3-dihydro-1H-benzo[d]imidazol-5-yl)-3,4-dimethoxybenzenesulfonamide]	> 1000
CCCOc1cccc(Oc2cc3c(cc2NS(=O)(=O)c2nnc[nH]2)n(C)c(=O)n3C)c1 [Example 87, N-(1,3-diemthyl-2-oxo-6-(3-propoxyphenoxy)-2,3-dihydro-1H-benzo[d]imidazol-5-yl)-4H-1,2,4-triazole-3-sulfonamide]	100 to 1000
CCCOc1cccc(Oc2cc3c(cc2NS(=O)(=O)c2cn(C)cn2)n(C)c(=O)n3C)c1C [Example 103, N-(1,3-dimethyl-6-(2-methyl-3-propoxyphenoxy)-2-oxo-2,3-dihydro-1H-benzo[d]imidazol-5-yl)-1-methyl-1H-imidazole-4-sulfonamide]	> 1000
CCCOc1cc(OCCCOC)cc(Oc2cc3c(cc2NS(=O)(=O)c2cccc(C)c2)n(C)c(=O)n3C)c1 [Example 155, N-(6-(3-(3-methoxypropoxy)-5-propoxyphenoxy)-1,3-dimethyl-2-oxo-2,3-dihydro-1H-benzo[d]imidazol-5-yl)-3-methylbenzenesulfonamide]	100 to 1000
Cc1ccsc1S(=O)(=O)Nc1cc2c(cc1Oc1cccc(OCc3ccccc3)c1)n(C)c(=O)n2C [Example 24, N-(6-(3-(benzyloxy)phenoxy)-1,3-dimethyl-2-oxo-2,3-dihydro-1H-benzo[d]imidazol-5-yl)-3-methylthiophene-2-sulfonamide]	> 1000
CCCOc1cc(OCCCOC)cc(Oc2cc3c(cc2NS(=O)(=O)c2cc(OC)cc(OC)c2)n(C)c(=O)n3C)c1 [Example 166, 3,5-dimethoxy-N-(6-(3-(3-methoxypropoxy)-5-propoxyphenoxy)-1,3-dimethyl-2-oxo-2,3-dihydro-1H-benzo[d]imidazol-5-yl)benzenesulfonamide]	100 to 1000
Cc1nc(S(=O)(=O)Nc2cc3c(cc2Oc2cccc(OCc4ccccc4)c2)n(C)c(=O)n3C)c[nH]1 [Example 49, N-(6-(3-(benzyloxy)phenoxy)-1,3-dimethyl-2-oxo-2,3-dihydro-1H-benzo[d]imidazol-5-yl)-2-methyl-1H-imidazole-4-sulfonamide]	100 to 1000
Cn1cnc(S(=O)(=O)Nc2cc3c(cc2Oc2cccc(OCCCCCCN)c2)n(C)c(=O)n3C)c1 [Example 146, N-(6-(3-((6-aminohexyl)oxy)phenoxy)-1,3-dimethyl-2-oxo-2,3-dimethyl-2-oxo-2,3-dihydro-1H-benzo[d]imidazol-5-yl)-1-methyl-1H-imidazole-4-sulfonamide]	100 to 1000
Cc1cccc(S(=O)(=O)Nc2cc3c(cc2Oc2cccc(OCc4ccccc4)c2)n(C)c(=O)n3C)c1 [Example 34, N-(6-(3-(benzyloxy)phenoxy)-1,3-dimethyl-2-oxo-2,3-dihydro-1H-benzo[d]imidazol-5-yl)-3-methylbenzenesulfonamide]	100 to 1000
Cn1cnc(S(=O)(=O)Nc2cc3c(cc2Oc2cccc(OCCCCN)c2)n(C)c(=O)n3C)c1 [Example 5, N-(6-(3-(4-aminobutoxy)phenoxy)-1,3-dimethyl-2-oxo-2,3-dihydro-1H-benzo[d]imidazol-5-yl)-1-methyl-1H-imidazole-4-sulfonamide]	100 to 1000
COc1ccc(S(=O)(=O)Nc2cc3c(cc2Oc2cccc(OCc4ccncc4)c2)n(C)c(=O)n3C)cc1OC [Example 31, N-(1,3-dimethyl-2-oxo-6-(3-(pyridin-4-ylmethoxy)phenoxy)-2,3-dihydro-1H-benzo[d]imidazol-5-yl)-3,4-dimethoxybenzenesulfonamide]	100 to 1000

Further lines, results first:

IC50 [nM]	SMILES
10 to 100	CCCOc1cc(OCCC)cc(Oc2cc3c(cc2NS(=O)(=O)c2cn(C)c(C)n2)n(C)c(=O)n3C)c1 [Example 90, N-(6-(3,5-dipropoxyphenoxy)-1,3-diemthyl-2-oxo-2,3-dihydro-1H-benzo[d]imidazol-5-yl)-1,2-dimethyl-1H-imidazole-4-sulfonamide]
10 to 100	CCCOc1cccc(Oc2cc3c(cc2NS(=O)(=O)c2cccc(C(=O)O)c2)n(C)c(=O)n3C)c1 [Example 208, 3-(N-(1,3-dimethyl-2-oxo-6-(3-propoxyphenxoy)-2,3-dihydro-1H-benzo[d]imidazol-5-yl)sulfamoyl)benzoic acid]
1 to 10	CCCOc1cc(OCCCCCCN)cc(Oc2cc3c(cc2NS(=O)(=O)c2cccnc2)n(C)c(=O)n3C)c1 [Example 183, N-(6-(3-((6-aminohexyl)oxy)-5-propoxyphenoxy)-1,3-dimethyl-2-oxo-2,3-dihydro-1H-benzo[d]imidazol-5-yl)pyridine-3-sulfonamide]
10 to 100	CCCOc1cccc(Oc2cc3c(cc2NS(=O)(=O)c2cn(C)c(C)n2)n(C)c(=O)n3C)c1 [Example 61, N-(1,3-dimethyl-2-oxo-6-(3-propoxyphenoxy)-2,3-dihydro-1H-benzo[d]imidazol-5-yl)-1,2-dimethyl-1H-imidazole-4-sulfonamide]
1 to 10	CCCOc1cc(OCCCC[N+](C)(C)C)cc(Oc2cc3c(cc2NS(=O)(=O)c2ccc(OC)c(OC)c2)n(C)c(=O)n3C)c1 [Example 254, 4-(3-((6-(3,4-dimethoxyphenylsulfonamido)-1,3-dimethyl-2-oxo-2,3-dihydro-1H-benzo[d]imidazol-5-yl)oxy)-5-propoxyphenoxy)-N,N,N-trimethylbutan-1-aminium 2,2,2-trifluoroacetate]
10 to 100	CCCOc1cc(C#N)cc(Oc2cc3c(cc2NS(=O)(=O)c2cn(C)c(C)n2)n(C)c(=O)n3C)c1 [Example 107, N-(6-(3-cyano-5-propoxyphenoxy)-1,3-dimethyl-2-oxo-2,3-dihydro-1H-benzo[d]imidazol-5-yl)-1,2-dimethyl-1H-imidazole-4-sulfonamide]
10 to 100	CCCOc1cc(OCCCOC)cc(Oc2cc3c(cc2NS(=O)(=O)c2cccc4[nH]c(=O)c(=O)[nH]c24)n(C)c(=O)n3C)c1 [Example 176, N-(6-(3-(3-methoxypropoxy)-5-propoxyphenoxy)-1,3-dimethyl-2-oxo-2,3-dihydro-1H-benzo[d]imidazol-5-yl)-2,3-dioxo-1,2,3,4-tetrahydroquinoxaline-5-sulfonamide]
10 to 100	COC(=O)c1cccc(S(=O)(=O)Nc2cc3c(cc2Oc2cccc(OCC(F)(F)F)c2)n(C)c(=O)n3C)c1 [Example 192, methyl 3-(N-(1,3-dimethyl-2-oxo-6-(3-(2,2,2-trifluoroethoxy)phenoxy)-2,3-dihydro-1H-benzo[d]imidazol-5-yl)sulfamoyl)benzoate]
10 to 100	CCCOc1cc(OCCCOC)cc(Oc2cc3c(cc2NS(=O)(=O)c2ccc(OC)c(OC)c2)n(C)c(=O)n3C)c1 [Example 138, 3,4-dimethoxy-N-(6-(3-(3-methoxypropoxy)-5-propoxyphenoxy)-1,3-dimethyl-2-oxo-2,3-dihydro-1H-benzo[d]imidazol-5-yl)benzenesulfonamide]
10 to 100	CCCOc1cc(OCCCCCN)cc(Oc2cc3c(cc2NS(=O)(=O)c2cn(C)cn2)n(C)c(=O)n3C)c1 [Example 197, N-(6-(3-((5-aminopentyl)oxy)-5-propoxyphenoxy)-1,3-dimethyl-2-oxo-2,3-dihydro-1H-benzo[d]imidazol-5-yl)-1-methyl-1H-imidazole-4-sulfonamide]
10 to 100	Cn1cnc(S(=O)(=O)Nc2cc3c(cc2Oc2cc(OCC4CC4)cc(OCC4CC4)c2)n(C)c(=O)n3C)c1 [Example 117, N-(6-(3,5-bis(cyclopropylmethoxy)phenoxy)-1,3-dimethyl-2-oxo-2,3-dihydro-1H-benzo[d]imidazol-5-yl)-1-methyl-1H-imidazole-4-sulfonamide]
